Entries after “also recorded” stand apart in the source; their conditions may differ.
Legend:
[1] = test system: ear skin; assay: IL-23 subcutaneous injection psoriasis model, skin thickness measured with calipers; type: in vivo, mouse
Description: (§1) To determine which cells are key to initiate psoriatic disease, Applicants studied a subcutaneous IL-23 injection model, which leads to increased skin thickness after five days of daily injections (FIG. 1a, FIG. 5a). First, Applicants assessed the role of different immune cell types in this model (FIG. 1b, FIG. 5b,c). […] This is also consistent with an increased number of human ILC3s recently observed in psoriatic patients^3,4. Moreover, while γδ T cells have been implicated in a longer treatment course^2,5, analyzing Tcrd^−/− mice, which lack only γδ T cells, Applicants found no evidence that they contribute to disease initiation (FIG. 1b). […] Applicants compared disease phenotype between control mice and those treated with FTY720, which blocks signaling from the S1P1 receptor, preventing egress of T cells from secondary lymphoid tissues and limiting trafficking of induced ILC2s^7,11. […] Thus, in contrast to a model of lung inflammation, in psoriasis, tissue-resident ILCs are sufficient to drive disease pathology and are critical for amplifying the response to IL-23.
(§2) Psoriasis model. The psoriasis model used in this study is based on rIL-23 subcutaneous injections. The 500 ng in 20 μl of rIL-23 (provided by Abbvie or purchased from R&D Systems [scRNAseq experiments]) was injected daily into the ear skin of anesthetized mice in 4 consecutive days. As a control 20 μl of PBS was used with the same injection intervals. For the second challenge experiment, Applicants waited 10 days, monitoring the skin thickness before repeating 4-day injection regimen. Skin thickness was measured daily with calipers. When indicated, FTY720 (1 mg/kg) was dissolved in PBS and administered i.p on day −1, 1 and 3 of the experiment. Skin tissue was collected on day 5 for histology imaging, flow cytometry analysis or cell sorting.

[2] = test system: circulating total white blood cells; assay: Total circulatory white blood cell numbers after FTY720 treatment; type: in vivo, mouse; conditions: FTY720 1 mg/kg i.p., WT and Rag1−/− mice, vs untreated
Description: as §1
Psoriasis model. The psoriasis model used in this study is based on rIL-23 subcutaneous injections. […] Skin thickness was measured daily with calipers. […]

[3] = test system: skin ILCs; assay: Alternative psoriasis model using topical imiquimod in IL-5 fate / IL-22 BFP / IL-17A GFP reporter mouse; type: in vivo
[4] = test system: skin ILCs; assay: IL-5 fate mapping with IL-17A GFP and IL-22 BFP reporters after IL-23 injection; type: in vivo, mouse
Description: (§3) Next, Applicants tested the prediction of a transition during disease of IL-5-expressing ILC2s into IL-22/IL-17A-expressing ILC3-like cells. Applicants generated an IL-5 fate reporter mouse from IL-5-cre-dTomato (Red5)^50 and Rosa26^flox-Stop-floxYFP, which Applicants then combined with IL-17A^GFP 51 and IL-22^BFP expression reporters (FIG. 4b). […] Moreover, cells that expressed ILC3 type cytokines no longer expressed IL-5 (FIG. 4d). […] Finally, Applicants also tested the model's prediction that there is a subset of skin ILCs in the psoriasis model that co-expresses the type 2 cytokine IL-13 with both of the type 3 cytokines IL-22 and IL-17A.
Mice. C57BL/6, Tcrd^−/− and Rosa26^flox-stop-floxYFP Ai3(RCL-EYFP) mice were purchased from the Jackson Laboratories. Rag1^−/− and Rag2^−/−IL2rg^−/− were purchased from Taconic Biosciences. IL-5 Cre, dTomato (Red5/R5) from Dr Locksley laboratory. The IL-5 fate reporter in this work was generated by crossing Red5 with Ai3(RCL-EYFP) with IL-17A^GFP 51 and IL-22^BFP generated in Applicants laboratory. In order to maximize the Cre recombination and increase the signal of Rosa26^YFP positive cells, Applicants used homozygous IL-5^dTomato, Cre. Applicants observed little to no difference in IL-23 induced skin thicknening (FIG. 8a).
Psoriasis model. […] Skin thickness was measured daily with calipers. […]

[5] = test system: skin ILCs; assay: Intracellular cytokine staining of skin ILCs after IL-23 treatment; type: in vivo, mouse
Description: as §3
as §2, with “sorting. […]” for “sorting.”

CCCCCCCCc1ccc(CCC(N)(CO)CO)cc1 [FTY720, reference compound]
psoriasis phenotype induction upon IL-23 administration (skin thickness) ([1]; FTY720-treated vs untreated controls, WT or Rag1−/− mice): no difference
increased susceptibility to a secondary challenge with IL-23 (skin thickness) ([1]; FTY720 during the primary injection): does not impact; also recorded: also observed
circulating total white blood cells [2]: blocks; also recorded: reduction

CC(C)Cn1cnc2c(N)nc3ccccc3c21 [imiquimod]
IL-22 production, compared with IL-23 injection model ([3]; topically treated over 10 days): less induced
IL-17A producing cells including exIL-5 cells ([3]; topically treated over 10 days vs untreated mice): increase

IL-23: recombinant cytokine injected subcutaneously into ear skin to induce the psoriasis model
IL-22- and IL-17A-expressing cells that were ex-IL-5 producing cells ([4]; after IL-23 injection, fate mapping of ILC2s): ~10%
number of ex-IL-5 cells producing IL-22 and IL-17A ([4]; second IL-23 challenge): further elevated
cells expressing IL-22 and IL-17A that also co-express IL-13 ([5]; Rag1−/− mice): ~20%
cells expressing IL-22 and IL-17A that also co-express IL-13 ([5]; WT and Tcrd−/− mice): ~10%
increase in skin thickness over the treatment course ([1]; Rag1−/− mice (intact ILCs)): significant increase
increase in ear thickness ([1]; Rag2−/− Il2rg−/− double mutant (lacks all lymphocytes)): did not show any increase
skin thickening, treated versus untreated recipient mice ([1]; Rag2−/− Il2rg−/− mice with adoptively transferred sorted skin ILCs): significant skin thickening
skin thickness ([1]; WT mice, daily subcutaneous injections, vs PBS vehicle): significantly higher; also recorded: increased
time for inflammation and skin thickness to revert to near-baseline levels ([1]; after the initial injection): ≤ 10 days
phenotype after a second series of injections compared to initial response ([1]; second challenge): significantly more severe
